# ChEMBL document CHEMBL1687748 (Antimicrob Agents Chemother, 2009)
# Legend:
# Format in all cases: functional
# Bacillus anthracis [1] = experiment: Growth rate constant for compound-sensitive toxin and capsule gene-deficient Bacillus anthracis Sterne in hollow-fiber pharmacodynamic infection model at 200 mg administered as continuous infusion by Bayesian method
# Bacillus anthracis [2] = experiment: Growth rate constant of vegetative-phase cells going to spore phase in toxin and capsule gene-deficient Bacillus anthracis Sterne in hollow-fiber pharmacodynamic infection model at 150 mg, qd by Bayesian method
# Bacillus anthracis [3] = experiment: Total spore counts of toxin and capsule gene-deficient Bacillus anthracis Sterne in hollow-fiber pharmacodynamic infection model at 250 mg administered as continuous infusion by Bayesian method
# Bacillus anthracis [4] = experiment: Hill constant for compound-sensitive toxin and capsule gene-deficient Bacillus anthracis Sterne in hollow-fiber pharmacodynamic infection model at 150 mg administered as continuous infusion by Bayesian method
# Bacillus anthracis [5] = experiment: Kill rate constant for compound-sensitive toxin and capsule gene-deficient Bacillus anthracis Sterne in hollow-fiber pharmacodynamic infection model at 100 mg, qd by Bayesian method
# Bacillus anthracis [6] = experiment: Growth rate constant for compound-sensitive toxin and capsule gene-deficient Bacillus anthracis Sterne in hollow-fiber pharmacodynamic infection model at 150 mg administered as continuous infusion by Bayesian method
# Bacillus anthracis [7] = experiment: Total sensitive organism counts of toxin and capsule gene-deficient Bacillus anthracis Sterne in hollow-fiber pharmacodynamic infection model at 150 mg, qd by Bayesian method
# Bacillus anthracis [8] = experiment: Growth rate constant of vegetative-phase cells going to spore phase in toxin and capsule gene-deficient Bacillus anthracis Sterne in hollow-fiber pharmacodynamic infection model at 200 mg, qd by Bayesian method
# Bacillus anthracis [9] = experiment: Kill rate constant for compound-sensitive toxin and capsule gene-deficient Bacillus anthracis Sterne in hollow-fiber pharmacodynamic infection model at 150 mg administered as continuous infusion by Bayesian method
# Bacillus anthracis [10] = experiment: Hill constant for compound-sensitive toxin and capsule gene-deficient Bacillus anthracis Sterne in hollow-fiber pharmacodynamic infection model at 250 mg administered as continuous infusion by Bayesian method
# Bacillus anthracis [11] = experiment: Kill rate constant for compound-sensitive toxin and capsule gene-deficient Bacillus anthracis Sterne in hollow-fiber pharmacodynamic infection model at 50 mg, qd by Bayesian method
# Bacillus anthracis [12] = experiment: Hill constant for compound-sensitive toxin and capsule gene-deficient Bacillus anthracis Sterne in hollow-fiber pharmacodynamic infection model administered as continuous infusion
# Bacillus anthracis [13] = experiment: Kill rate constant for compound-sensitive toxin and capsule gene-deficient Bacillus anthracis Sterne in hollow-fiber pharmacodynamic infection model at 100 mg administered as continuous infusion by Bayesian method
# Bacillus anthracis [14] = experiment: Growth rate constant of vegetative-phase cells going to spore phase in toxin and capsule gene-deficient Bacillus anthracis Sterne in hollow-fiber pharmacodynamic infection model at 50 mg, qd by Bayesian method
# Bacillus anthracis [15] = experiment: Growth rate constant of spore-phase cells going to vegetative phase in toxin and capsule gene-deficient Bacillus anthracis Sterne in hollow-fiber pharmacodynamic infection model at 250 mg, qd by Bayesian method
# Bacillus anthracis [16] = experiment: Growth rate constant of vegetative-phase cells going to spore phase in toxin and capsule gene-deficient Bacillus anthracis Sterne in hollow-fiber pharmacodynamic infection model at 100 mg, qd by Bayesian method
# Bacillus anthracis [17] = experiment: Total spore counts of toxin and capsule gene-deficient Bacillus anthracis Sterne in hollow-fiber pharmacodynamic infection model at 50 mg, qd by Bayesian method
# Bacillus anthracis [18] = experiment: Total sensitive organism counts of toxin and capsule gene-deficient Bacillus anthracis Sterne in hollow-fiber pharmacodynamic infection model at 200 mg administered as continuous infusion by Bayesian method
# Bacillus anthracis [19] = experiment: Growth rate constant of vegetative-phase cells going to spore phase in toxin and capsule gene-deficient Bacillus anthracis Sterne in hollow-fiber pharmacodynamic infection model at 200 mg administered as continuous infusion by Bayesian method
# Bacillus anthracis [20] = experiment: Hill constant for compound-sensitive toxin and capsule gene-deficient Bacillus anthracis Sterne in hollow-fiber pharmacodynamic infection model at 200 mg, qd by Bayesian method
# Bacillus anthracis [21] = experiment: Kill rate constant for compound-sensitive toxin and capsule gene-deficient Bacillus anthracis Sterne in hollow-fiber pharmacodynamic infection model at 250 mg, qd by Bayesian method
# Bacillus anthracis [22] = experiment: Growth rate constant for compound-sensitive toxin and capsule gene-deficient Bacillus anthracis Sterne in hollow-fiber pharmacodynamic infection model at 200 mg, qd by Bayesian method
# Bacillus anthracis [23] = experiment: Hill constant for compound-sensitive toxin and capsule gene-deficient Bacillus anthracis Sterne in hollow-fiber pharmacodynamic infection model at 200 mg administered as continuous infusion by Bayesian method
# Bacillus anthracis [24] = experiment: Total sensitive organism counts of toxin and capsule gene-deficient Bacillus anthracis Sterne in hollow-fiber pharmacodynamic infection model at 200 mg, qd by Bayesian method
# Bacillus anthracis [25] = experiment: Growth rate constant for compound-sensitive toxin and capsule gene-deficient Bacillus anthracis Sterne in hollow-fiber pharmacodynamic infection model at 100 mg, qd by Bayesian method
# Bacillus anthracis [26] = experiment: Antimicrobial activity against toxin and capsule gene-deficient Bacillus anthracis Sterne after 24 hrs by […] method
# Bacillus anthracis [27] = experiment: Growth rate constant of spore-phase cells going to vegetative phase in toxin and capsule gene-deficient Bacillus anthracis Sterne in hollow-fiber pharmacodynamic infection model at 50 mg, qd by Bayesian method
# Bacillus anthracis [28] = experiment: Growth rate constant of spore-phase cells going to vegetative phase in toxin and capsule gene-deficient Bacillus anthracis Sterne in hollow-fiber pharmacodynamic infection model at 200 mg, qd by Bayesian method
# Bacillus anthracis [29] = experiment: Total spore counts of toxin and capsule gene-deficient Bacillus anthracis Sterne in hollow-fiber pharmacodynamic infection model at 100 mg administered as continuous infusion by Bayesian method
# Bacillus anthracis [30] = experiment: Growth rate constant of spore-phase cells going to vegetative phase in toxin and capsule gene-deficient Bacillus anthracis Sterne in hollow-fiber pharmacodynamic infection model at 250 mg administered as continuous infusion by Bayesian method
# Bacillus anthracis [31] = experiment: Kill rate constant for compound-sensitive toxin and capsule gene-deficient Bacillus anthracis Sterne in hollow-fiber pharmacodynamic infection model at 150 mg, qd by Bayesian method
# Bacillus anthracis [32] = experiment: Growth rate constant of spore-phase cells going to vegetative phase in toxin and capsule gene-deficient Bacillus anthracis Sterne in hollow-fiber pharmacodynamic infection model at 150 mg administered as continuous infusion by Bayesian method
# Bacillus anthracis [33] = experiment: Hill constant for compound-sensitive toxin and capsule gene-deficient Bacillus anthracis Sterne in hollow-fiber pharmacodynamic infection model at 100 mg administered as continuous infusion by Bayesian method
# Bacillus anthracis [34] = experiment: Total sensitive organism counts of toxin and capsule gene-deficient Bacillus anthracis Sterne in hollow-fiber pharmacodynamic infection model at 250 mg, qd by Bayesian method
# Bacillus anthracis [35] = experiment: Kill rate constant for compound-sensitive toxin and capsule gene-deficient Bacillus anthracis Sterne in hollow-fiber pharmacodynamic infection model at 200 mg administered as continuous infusion by Bayesian method
# Bacillus anthracis [36] = experiment: Total sensitive organism counts of toxin and capsule gene-deficient Bacillus anthracis Sterne in hollow-fiber pharmacodynamic infection model at 50 mg, qd by Bayesian method
# Bacillus anthracis [37] = experiment: Growth rate constant of spore-phase cells going to vegetative phase in toxin and capsule gene-deficient Bacillus anthracis Sterne in hollow-fiber pharmacodynamic infection model at 100 mg administered as continuous infusion by Bayesian method
compound,measurement,setting,value
COc1c(N2C[C@@H]3CCCN[C@@H]3C2)c(F)cc2c(=O)c(C(=O)O)cn(C3CC3)c12 [MOXIFLOXACIN],Activity,Bacillus anthracis [1],8.25 h⁻¹
same,Activity,Bacillus anthracis [2],0.0657 h⁻¹
same,CFU/ml,Bacillus anthracis [3],1860000
same,Activity,Bacillus anthracis [4],30 h⁻¹
same,Activity,Bacillus anthracis [5],7.48 h⁻¹
same,Activity,Bacillus anthracis [6],8.25 h⁻¹
same,CFU/ml,Bacillus anthracis [7],21500000
same,Activity,Bacillus anthracis [8],2.09 h⁻¹
same,Activity,Bacillus anthracis [9],8.28 h⁻¹
same,Activity,Bacillus anthracis [10],30 h⁻¹
same,Activity,Bacillus anthracis [11],6.24 h⁻¹
same,Activity,Bacillus anthracis [12],5.93 h⁻¹
same,Activity,Bacillus anthracis [13],8.28 h⁻¹
same,Activity,Bacillus anthracis [14],0.0657 h⁻¹
same,Activity,Bacillus anthracis [15],1.04 h⁻¹
same,Activity,Bacillus anthracis [16],1.38 h⁻¹
same,CFU/ml,Bacillus anthracis [17],1860000
same,CFU/ml,Bacillus anthracis [18],20600000
same,Activity,Bacillus anthracis [19],5.3 h⁻¹
same,Activity,Bacillus anthracis [20],1 h⁻¹
same,Activity,Bacillus anthracis [21],4.48 h⁻¹
same,Activity,Bacillus anthracis [22],1.81 h⁻¹
same,Activity,Bacillus anthracis [23],30 h⁻¹
same,CFU/ml,Bacillus anthracis [24],53600000
same,Activity,Bacillus anthracis [25],6.57 h⁻¹
same,MBC,Bacillus anthracis [26],1 µg/mL
same,Activity,Bacillus anthracis [27],2.91 h⁻¹
same,Activity,Bacillus anthracis [28],1.01 h⁻¹
same,CFU/ml,Bacillus anthracis [29],1860000
same,Activity,Bacillus anthracis [30],7.23 h⁻¹
same,Activity,Bacillus anthracis [31],6.58 h⁻¹
same,Activity,Bacillus anthracis [32],9.06 h⁻¹
same,Activity,Bacillus anthracis [33],20.9 h⁻¹
same,CFU/ml,Bacillus anthracis [34],36000000
same,Activity,Bacillus anthracis [35],8.28 h⁻¹
same,CFU/ml,Bacillus anthracis [36],19600000
same,Activity,Bacillus anthracis [37],10.1 h⁻¹
